pIC50: −log10 of the molar value.
Molecular target: Bub1 (Homo sapiens, UniProt O43683)
Experiment: in vitro […] kinase assay with purified kinase, […] ATP, phosphoimager
Assay type: biochemical

Chain of Bub1 (O43683 724-1085): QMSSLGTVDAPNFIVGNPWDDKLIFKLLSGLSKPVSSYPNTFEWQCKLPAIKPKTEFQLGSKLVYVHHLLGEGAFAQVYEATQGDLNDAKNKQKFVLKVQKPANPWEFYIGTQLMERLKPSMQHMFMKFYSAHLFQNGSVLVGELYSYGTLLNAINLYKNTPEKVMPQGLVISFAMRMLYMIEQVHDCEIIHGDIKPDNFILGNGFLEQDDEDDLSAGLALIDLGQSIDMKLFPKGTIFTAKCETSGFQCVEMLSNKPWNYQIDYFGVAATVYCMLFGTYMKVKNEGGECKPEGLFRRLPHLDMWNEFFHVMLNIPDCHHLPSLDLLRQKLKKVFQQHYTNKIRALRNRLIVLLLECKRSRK

Structure (SMILES): CC(C)(C)n1nc(Cc2ccccc2O)c2c(N)ncnc21 [2OH-BNPP1]
- pIC50: ~6.60
